Measured values: PMC3502552, “A dimerized urea-based inhibitor of the prostate-specific membrane antigen for ^68Ga-PET imaging of prostate cancer” (EJNMMI Research, 2012)

Tests used:
apo-transferrin = apo-transferrin (Homo sapiens, UniProt P02787); experiment: Complex stability against human transferrin / protein binding (size exclusion chromatography); format: in vitro ADME; details: after incubation in human serum or in the presence of apo-transferrin; 2 h, 37°C
Description: The radiochemical stability was analyzed in both phosphate-buffered saline (PBS) and human serum. After 2 h of incubation at 37°C, an equal volume of CH3CN was added to the samples to precipitate serum proteins. Subsequently, the samples were centrifuged for 5 min at 13,000 rpm. Aliquots of the supernatant and the PBS sample were analyzed via RP-HPLC. In addition, serum samples were run on a Superdex 75 GL 5/150 gel filtration column (GE Healthcare, Munich, Germany) to analyze potential protein binding (PBS pH 7 as eluent). To analyze the complex stability against human transferrin, a 400-μL aliquot was added to 250 μg of apo-transferrin in PBS at pH 7 and incubated at 37°C (water bath) for 2 h. The complex stability was determined using a Superdex 75 GL 5/150 short column with PBS pH 7 as eluent.

[1] = Radiochemical stability in human serum and PBS; format: in vitro ADME; details: 2 h incubation at 37°C
Description: The radiochemical stability was analyzed in both phosphate-buffered saline (PBS) and human serum. After 2 h of incubation at 37°C, an equal volume of CH3CN was added to the samples to precipitate serum proteins. Subsequently, the samples were centrifuged for 5 min at 13,000 rpm. Aliquots of the supernatant and the PBS sample were analyzed via RP-HPLC. In addition, serum samples were run on a Superdex 75 GL 5/150 gel filtration column (GE Healthcare, Munich, Germany) to analyze potential protein binding (PBS pH 7 as eluent).

PSMA− PC-3 cells = experiment: Cell binding and internalization in PC-3 cells; format: cell-based, human; details: 25 nM, 45 min
Description: (§1) Internalization experiments were performed as previously described. Briefly, 10^5 LNCaP or PC-3 cells were seeded in poly-L-lysine-coated 24-well cell culture plates 24 h before incubation. After washing with PBS, the cells were incubated with the radiolabeled compounds ^68Ga]6 or ^68Ga]7 (25 nM final concentration) for 45 min at 37°C and at 4°C, respectively. To determine specific cellular uptake, cells were blocked with 2-(phosphonomethyl)-pentanedioic acid (PMPA, Axxora, Loerrach, Germany) to a final concentration of 100 μM. Cellular uptake was terminated by washing four times with 1 mL of ice-cold PBS. To remove surface-bound radioactivity, cells were incubated twice with 0.5 mL glycine-HCl in PBS (50 mM, pH = 2.8) for 5 min. The cells were washed with 1 mL of ice-cold PBS and lysed using 0.3 N NaOH (0.5 mL). The surface-bound and the internalized fractions were measured in a gamma counter.

LNCaP tumor xenograft = experiment: Dynamic microPET in mice bearing LNCaP tumor xenografts; format: in vivo; details: L-isomer versus D-isomer
Description: For the microPET studies, 10 to 25 MBq of either [^68Ga]6 or [^68Ga]7 in a volume of 0.15 mL (approximately 0.5 nmol) was injected via a lateral tail vein into mice bearing LNCaP tumor xenografts. The anesthetized animals (2% sevoflurane, Abbott, Wiesbaden, Germany) were placed in prone position into an Inveon small animal PET scanner (Siemens, Knoxville, TN, USA) to perform a 50-min dynamic microPET scan starting at 1 min post-injection followed by a 20-min static scan. All animal experiments complied with the current laws of the Federal Republic of Germany.

LNCaP cells = experiment: Cell surface retention (efflux); format: cell-based, human; details: 2-PMPA added to avoid rebinding, compared to monomer
Description: The determination of cell surface retention was performed in accordance to a previously described experiment. Briefly, 5 × 10^6 LNCaP cells in a 320-μL RPMI 1640 medium were incubated with ^68Ga]6 or ^68Ga]7 (25 nM final concentration), respectively, for 45 min at 37°C. Cells were washed three times and resuspended in the RPMI 1640 medium (320 μL); samples were taken as a control for total cell-associated activity (cell surface bound and internalized). Subsequently, 0.5 μL of a 2-PMPA solution (100 mmol/L in DMSO) was added to avoid rebinding and to enhance the competitive pressure on releasing the radioactivity from the cell surface. At indicated time points, 10-μL samples were taken and transferred on top of a 400-μL microcentrifuge tube containing 350 μL of a 75:25 mixture of silicon oil (density 1.05; Aldrich), and mineral oil (density 0.872; Acros, Thermo Fisher Scientific). Subsequently, the tubes were centrifuged at 12,000 rpm for 2 min to separate cellular radioactivity and radioactivity solved in the medium. After freezing in liquid nitrogen, the bottom tips containing the cell pellet were cut off. The cell pellets and the medium were measured in a gamma counter to determine cellular uptake
(1) %uptake=100×cpminpellet/cpminpellet+cpminsupernatant

PSMA+ LNCaP cells = experiment: Cell binding and internalization in LNCaP cells; format: cell-based, human
Description: as §1

LNCaP tumor xenografts = experiment: Biodistribution in mice bearing LNCaP tumor xenografts; format: in vivo, BALB/c nu/nu mice; details: 1 h post-injection
Description: (§2) Male BALB/c nu/nu mice of 7 to 8 weeks old (Charles River Laboratories, Wilmington, MA, USA) were subcutaneously inoculated into the right trunk with 5 × 10^6 cells of either LNCaP or PC-3 (both in 50% Matrigel; Becton Dickinson, Heidelberg, Germany). The tumors were allowed to grow for 3 to 4 weeks until approximately 1 cm^3 in size. The ^68Ga-radiolabeled compounds were injected into a tail vein (1 to 2 MBq/mouse; 0.1 to 0.2 nmol). At 1 h after injection, the animals were sacrificed. Organs of interest were dissected, blotted dry, and weighed. The radioactivity was measured using a gamma counter and calculated as percentage injected dose per gram (% ID/g).

PSMA− PC-3 tumor = experiment: Biodistribution in PC-3 tumor-bearing mice; format: in vivo, BALB/c nu/nu mice; details: 1 h post-injection; PSMA− PC-3 tumor-bearing mice
Description: as §2, with “At 1 h after injection, the animals were sacrificed.” left out

[2] = i.v. tail vein, 0.1 to 0.2 nmol

apo-transferrin, sequence (P02787 20-698): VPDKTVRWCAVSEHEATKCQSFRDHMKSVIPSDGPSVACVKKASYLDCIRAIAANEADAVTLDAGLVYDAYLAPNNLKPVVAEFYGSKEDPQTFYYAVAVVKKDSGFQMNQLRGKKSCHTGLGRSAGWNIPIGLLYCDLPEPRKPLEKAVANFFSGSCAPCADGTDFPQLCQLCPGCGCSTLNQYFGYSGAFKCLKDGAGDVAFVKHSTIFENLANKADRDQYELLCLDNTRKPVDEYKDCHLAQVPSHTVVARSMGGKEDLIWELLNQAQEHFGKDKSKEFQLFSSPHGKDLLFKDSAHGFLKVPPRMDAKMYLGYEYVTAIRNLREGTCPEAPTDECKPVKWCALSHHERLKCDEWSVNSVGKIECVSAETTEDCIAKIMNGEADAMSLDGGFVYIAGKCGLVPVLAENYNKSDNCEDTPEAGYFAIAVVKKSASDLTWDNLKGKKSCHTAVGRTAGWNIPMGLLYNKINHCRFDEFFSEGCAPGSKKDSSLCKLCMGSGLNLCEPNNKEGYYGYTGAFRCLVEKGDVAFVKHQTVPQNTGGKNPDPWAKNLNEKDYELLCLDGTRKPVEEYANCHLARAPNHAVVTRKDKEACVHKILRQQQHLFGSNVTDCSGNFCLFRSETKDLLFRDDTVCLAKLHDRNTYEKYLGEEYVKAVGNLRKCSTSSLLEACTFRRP

SMILES: O=C(O)CC[C@H](NC(=O)N[C@@H](CCCCNC(=O)CCCCCNC(=O)CCc1ccc(O)c(CN(CCN(CC(=O)O)Cc2cc(CCC(=O)NCCCCCC(=O)NCCCC[C@H](NC(=O)N[C@@H](CCC(=O)O)C(=O)O)C(=O)O)ccc2O)CC(=O)O)c1)C(=O)O)C(=O)O [[^68Ga]7, metal not drawn]
- Changes in size exclusion chromatography (apo-transferrin): no changes in size exclusion chromatography were detected
- Intact compound by HPLC analysis [1]: 99%
- Binding to PSMA− PC-3 cells (PSMA− PC-3 cells): no binding
- Tumor time-activity behaviour in dynamic PET (LNCaP tumor xenograft): accumulation in the tumor
- Cell surface retention (efflux experiment) (LNCaP cells): prolonged cell surface retention
- Internalized fraction (PSMA+ LNCaP cells; 25 nM, 45 min): approximately 25%
- Cellular uptake (PSMA+ LNCaP cells; 25 nM, 45 min, percentage of applied radioactivity bound to 10^6 cells): 40.04 ± 6.09%
- Uptake in the presence of 2-PMPA (PSMA+ LNCaP cells; 100 μM 2-PMPA): blocked
- Enhanced tumor uptake of dimer versus monomer (factor) (LNCaP tumor xenografts; LNCaP tumor): approximately 1.7
- Tumor-to-blood ratio (T/B) (LNCaP tumor xenografts; LNCaP tumor): 26.5
- Kidney uptake after co-injection of PMPA (LNCaP tumor xenografts; blocked with 2 mg/kg 2-PMPA): 8.29 ± 0.83 % ID/g
- Spleen uptake after blocking (LNCaP tumor xenografts; blocked with 2 mg/kg 2-PMPA): 0.67 ± 0.11 % ID/g
- Organ distribution, Blood (LNCaP tumor xenografts; [2]): 0.31 ± 0.03 % ID/g
- Organ distribution, Brain (LNCaP tumor xenografts; [2]): 0.17 ± 0.01 % ID/g
- Organ distribution, Heart (LNCaP tumor xenografts; [2]): 0.90 ± 0.12 % ID/g
- Organ distribution, Intestine (LNCaP tumor xenografts; [2]): 0.57 ± 0.14 % ID/g
- Organ distribution, Kidney (LNCaP tumor xenografts; [2]): 133.43 ± 18.88 % ID/g
- Organ distribution, Liver (LNCaP tumor xenografts; [2]): 1.29 ± 0.11 % ID/g
- Organ distribution, Lung (LNCaP tumor xenografts; [2]): 2.25 ± 0.24 % ID/g
- Organ distribution, Muscle (LNCaP tumor xenografts; [2]): 0.90 ± 0.01 % ID/g
- Organ distribution, Spleen (LNCaP tumor xenografts; [2]): 17.88 ± 4.53 % ID/g
- Organ distribution, LNCaP tumor (LNCaP tumor xenografts; n = 5): 8.22 ± 1.78 % ID/g
- Organ distribution, PC-3 tumor (PSMA− PC-3 tumor): 0.93 ± 0.53 % ID/g
